For 21 compounds, EC50 and IC50 results are on record in patent publication US11066414B2, “Cot modulators and methods of use thereof” (Gilead Sciences, Inc., priority 2015, dated 2021).

For one test, the system named is TNFα. Put plainly: Cot Monocyte TNFα Cell Based Assay.
For the next test, the target named is Human Cot (Homo sapiens (Human), UniProt P41279). Put plainly: High Throughput Cot Biochemical Assay.
Where [1] appears, read: Homo sapiens, Monocyte, read-out: EC50 TNF, LPS-stimulated human monocytes, TNFα.
Setting [2] is: IC50 HTRF, Cot HTRF (TR-FRET) biochemical assay.
Setting [3] is: Homo sapiens, Monocyte, read-out: EC50 TNF, LPS-stimulated human monocytes, TNFα TR-FRET.
[4] abbreviates: IC50 HTRF, Cot HTRF (TR-FRET KinEASE) biochemical assay, 400 μM ATP.
The mark [5] stands for this setting: read-out: IC50 HTRF, Cot HTRF (TR-FRET) biochemical assay.

Each structure is given as a SMILES string. Where two headings read alike, the source gives them in different places.

Chain of Human Cot (P41279 30-397): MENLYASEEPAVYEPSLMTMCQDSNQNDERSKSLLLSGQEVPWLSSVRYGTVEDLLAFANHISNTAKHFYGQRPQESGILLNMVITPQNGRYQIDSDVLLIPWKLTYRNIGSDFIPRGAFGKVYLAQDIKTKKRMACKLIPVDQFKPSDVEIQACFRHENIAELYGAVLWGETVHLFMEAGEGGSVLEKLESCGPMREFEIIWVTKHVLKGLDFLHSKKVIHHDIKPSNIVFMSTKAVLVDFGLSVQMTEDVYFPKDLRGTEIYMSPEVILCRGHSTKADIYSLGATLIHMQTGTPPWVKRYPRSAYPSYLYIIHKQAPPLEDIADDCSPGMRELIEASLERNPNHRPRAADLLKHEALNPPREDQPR

Regarding `C[C@@H](CF)n1cc([C@@H](Nc2cc(Cl)c3ncc(C#N)c(NCC(C)(C)C)c3c2)c2cccc3c(=O)n(C)ccc23)nn1` [Example 778, 8-chloro-6-(((S)-(1-((S)-1-fluoropropan-2-yl)-1H-1,2,3-triazol-4-yl)(2-methyl-1-oxo-1,2-dihydroisoquinolin-5-yl)methyl)amino)-4-(neopentylamino)quinoline-3-carbonitrile], the EC50 (usually the concentration that produces a half-maximal response) in the test on TNFα (setting [1]) worked out at 30 nM. Besides, the IC50 (commonly the concentration needed to halve the response being measured) on Human Cot (setting [2]) turned out to be 4 nM.

On to `Cn1c(=O)ccc2c([C@H](Nc3cc(C#N)c4ncc(C#N)c(NCC(C)(C)C)c4c3)c3cn(C4(C(F)(F)F)CC4)nn3)cccc21` [Example 890, (S)-6-(((1-methyl-2-oxo-1,2-dihydroquinolin-5-yl)(1-(1-(trifluoromethyl)cyclopropyl)-1H-1,2,3-triazol-4-yl)methyl)amino)-4-(neopentylamino)quinoline-3,8-dicarbonitrile], for which the 50% effective concentration (EC50) in the test with TNFα (setting [3]) worked out at 68 nM. Half-maximal inhibition against Human Cot (setting [4]) (IC50) required 6 nM.

In the case of `Cn1nnc2cccc([C@H](Nc3cc(C#N)c4ncc(C#N)c(NCC(C)(C)C)c4c3)c3cn(C4(C(F)(F)F)CC4)nn3)c21` [Example 527, (S)-6-(((1-methyl-1H-benzo[d][1,2,3]triazol-7-yl)(1-(1-(trifluoromethyl)cyclopropyl)-1H-1,2,3-triazol-4-yl)methyl)amino)-4-(neopentylamino)quinoline-3,8-dicarbonitrile], the half-maximal effective concentration (EC50) with TNFα (setting [1]) was determined as 78 nM. The same compound had an IC50 against Human Cot (setting [2]) of 3 nM.

As to `CC(C)(C)N1CCC(n2cc([C@@H](Nc3cc(Cl)c4ncc(C#N)c(Nc5ccc(F)c(Cl)c5)c4c3)c3csc4ccccc34)nn2)CC1` [Example 351, (S)-6-((benzo[b]thiophen-3-yl(1-(1-(tert-butyl)piperidin-4-yl)-1H-1,2,3-triazol-4-yl)methyl)amino)-8-chloro-4-((3-chloro-4-fluorophenyl)amino)-quinoline-3-carbonitrile], the concentration for a half-maximal effect (EC50) in the test on TNFα (setting [1]) is 744 nM. At Human Cot (setting [2]), the midpoint of inhibition, the IC50, lay at 10 nM.

Consider `[2H]C(Nc1cc(Cl)c2ncc(C#N)c(N[C@H](CCO)c3ccccc3)c2c1)(c1ccc(F)nc1)c1cn(C2CC2)nn1` (stereo partly drawn) [Example 121, 8-chloro-6-(((1-cyclopropyl-1H-1,2,3-triazol-4-yl)(6-fluoropyridin-3-yl)methyl-d)amino)-4-(((R)-3-hydroxy-1-phenylpropyl)amino)quinoline-3-carbonitrile], for which the concentration for a half-maximal effect (EC50) with TNFα (setting [1]) is 171 nM. The compound also showed an IC50 against Human Cot (setting [2]) of 7 nM.

With `[2H][C@](Nc1cc(Cl)c2ncc(C#N)c(NCC(C)(C)C)c2c1)(c1ccc(F)nc1)c1cn(CC(=O)NS(C)(=O)=O)nn1` [Example 425, (S)-2-(4-(((8-chloro-3-cyano-4-(neopentylamino)quinolin-6-yl)amino)(6-fluoropyridin-3-yl)methyl-d)-1H-1,2,3-triazol-1-yl)-N-(methyl-sulfonyl)acetamide], in the test with TNFα (setting [1]), the EC50 was found to be 1000 nM. 7 nM corresponded to half-maximal inhibition on Human Cot (setting [2]) (IC50).

Regarding `N#Cc1cnc2c(Cl)cc(N[C@H](c3c[nH]nn3)c3csc4c3CCN(C3COC3)C4)cc2c1Nc1ccc(Cl)c(Cl)c1F` [Example 222, (S)-8-chloro-4-((3,4-dichloro-2-fluorophenyl)amino)-6-(((6-(oxetan-3-yl)-4,5,6,7-tetrahydrothieno[2,3-c]pyridin-3-yl)(1H-1,2,3-triazol-4-yl)methyl)amino)quinoline-3-carbonitrile], the half-maximal effective concentration (EC50) in the test on TNFα (setting [1]) stood at 739 nM. This compound also yielded an IC50 at Human Cot (setting [2]) of 19 nM.

`Cc1nc(F)ccc1[C@H](Nc1cc(Cl)c2ncc(C#N)c(NC3CCCCC3)c2c1)c1cn(C2(C(F)(F)F)CC2)nn1` [Example 588, (S)-8-chloro-4-(cyclohexylamino)-6-(((6-fluoro-2-methylpyridin-3-yl)(1-(1-(trifluoromethyl)cyclopropyl)-1H-1,2,3-triazol-4-yl)methyl)amino)quinoline-3-carbonitrile]: in the test with TNFα (setting [1]), the EC50 came to 629 nM. At Human Cot (setting [2]), the IC50 stood at 55 nM.

In the case of `CC(C)(CNc1c(C#N)cnc2c(Cl)cc(N[C@H](c3cn(C4(C(F)F)CC4)nn3)c3ccc(F)c4ncccc34)cc12)C(F)(F)F` [Example 918, (S)-8-chloro-6-(((1-(1-(difluoromethyl)cyclopropyl)-1H-1,2,3-triazol-4-yl)(8-fluoroquinolin-5-yl)methyl)amino)-4-((3,3,3-trifluoro-2,2-dimethylpropyl)amino)quinoline-3-carbonitrile], the EC50 in the test with TNFα (setting [3]) is 42 nM. For the same compound, at Human Cot (setting [4]), the IC50 came to 3 nM.

Turning to `Cn1ccc2c([C@H](Nc3cc(Cl)c4ncc(C#N)c(NCC(C)(C)C)c4c3)c3cn(C4CCC4)nn3)cccc2c1=O` [Example 796, (S)-8-chloro-6-(((1-cyclobutyl-1H-1,2,3-triazol-4-yl)(2-methyl-1-oxo-1,2-dihydroisoquinolin-5-yl)methyl)amino)-4-(neopentylamino)quinoline-3-carbonitrile], the EC50 in the test on TNFα (setting [1]) stood at 31 nM. On Human Cot (setting [2]), half-maximal inhibition (IC50) was put at 2 nM.

For `Cn1nccc1[C@H](Nc1cc(Cl)c2ncc(C#N)c(Nc3ccc(Cl)c(Cl)c3F)c2c1)c1c[nH]nn1` [Example 216, (S)-8-chloro-4-((3,4-dichloro-2-fluorophenyl)amino)-6-(((1-methyl-1H-pyrazol-5-yl)(1H-1,2,3-triazol-4-yl)methyl)amino)quinoline-3-carbonitrile], the EC50 in the test with TNFα (setting [1]) came out at 1190 nM. Further, at Human Cot (setting [2]), half-maximal inhibition (IC50) was put at 38 nM.

As for `Cc1ncccc1[C@H](Nc1cc(Cl)c2ncc(C#N)c(Nc3cccc(Cl)c3F)c2c1)c1c[nH]nn1` [Example 248, (S)-8-chloro-4-((3-chloro-2-fluorophenyl)amino)-6-(((2-methylpyridin-3-yl)(1H-1,2,3-triazol-4-yl)methyl)amino)-quinoline-3-carbonitrile], the EC50 in the test with TNFα (setting [1]) turned out to be 398 nM. Moreover, half-maximal inhibition against Human Cot (setting [2]) (IC50) required 4 nM.

In the case of `Cc1nc(F)ccc1[C@H](Nc1cc(Cl)c2ncc(C#N)c(NCC(C)(C)C)c2c1)c1cn(C2(C(=O)N3CCOCC3)CC2)nn1` [Example 555, (S)-8-chloro-6-(((6-fluoro-2-methylpyridin-3-yl)(1-(1-(morpholine-4-carbonyl)cyclopropyl)-1H-1,2,3-triazol-4-yl)methyl)amino)-4-(neopentylamino)quinoline-3-carbonitrile], the half-maximal effective concentration (EC50) with TNFα (setting [1]) stood at 208 nM. At Human Cot (setting [2]), this compound showed an IC50 of 7 nM.

Turning to `Cc1nc(F)ccc1[C@H](Nc1cc(Cl)c2ncc(C#N)c(NCC3(C)COC3)c2c1)c1cn(C2(C(F)(F)F)CC2)nn1` [Example 792, (S)-8-chloro-6-(((6-fluoro-2-methylpyridin-3-yl)(1-(1-(trifluoromethyl)-cyclopropyl)-1H-1,2,3-triazol-4-yl)methyl)amino)-4-(((3-methyloxetan-3-yl)methyl)amino)quinoline-3-carbonitrile], the EC50 with TNFα (setting [1]) came to 843 nM. The compound further came in with an IC50 against Human Cot (setting [2]) of 89 nM.

For the compound `Cc1nc(F)ccc1[C@H](Nc1cc(Cl)c2ncc(C#N)c(NCC(C)(C)C)c2c1)c1cn(CCCO)nn1` [Example 986, (S)-8-chloro-6-(((6-fluoro-2-methylpyridin-3-yl)(1-(3-hydroxypropyl)-1H-1,2,3-triazol-4-yl)methyl)amino)-4-(neopentylamino)quinoline-3-carbonitrile], in the test with TNFα (setting [3]), the EC50 is 141 nM. Further, the IC50 at Human Cot (setting [4]) was 5 nM.

Consider `N#Cc1cnc2c(Cl)cc(NC(c3cccnc3)c3ccccn3)cc2c1Nc1ccc(F)c(Cl)c1` (stereo not drawn) [Example 376, 8-chloro-4-((3-chloro-4-fluorophenyl)amino)-6-((pyridin-2-yl(pyridin-3-yl)methyl)amino)-quinoline-3-carbonitrile], for which the EC50 in the test with TNFα (setting [1]) is more than 1000 nM. At Human Cot (setting [5]), the IC50 was 182 nM.

Consider `Cc1ncccc1[C@H](Nc1cc(Cl)c2ncc(C#N)c(N[C@H](C)c3ccccc3)c2c1)c1cn(C(C)C)nn1` [Example 230, 8-chloro-6-(((S)-(1-isopropyl-1H-1,2,3-triazol-4-yl)(2-methylpyridin-3-yl)methyl)amino)-4-(((R)-1-phenylethyl)amino)quinoline-3-carbonitrile], for which the EC50 in the test on TNFα (setting [1]) was found to be 252 nM. Besides, the IC50 against Human Cot (setting [2]) was determined as 9 nM.

For the compound `CC(C)(C)CNc1c(C#N)cnc2c(Cl)cc(N[C@H](c3cn([C@@H]4C[C@@H]4F)nn3)c3cccc4ncccc34)cc12` [Example 692, 8-chloro-6-(((SH l-((lR,2S)-2-fluorocyclopropyl)-1H-1,2,3-triazol-4-yl)(quinolin-5-yl)methyl)amino)-4-(neopentylamino)quinoline-3-carbonitrile], in the test with TNFα (read-out: EC50 TNF, LPS-stimulated human monocytes, TNFα), the EC50 was determined as 38 nM. For the same compound, the IC50 on Human Cot (setting [5]) amounted to 3 nM.

For the compound `Cn1ccc2c([C@H](Nc3cc(Cl)c4ncc(C#N)c(NCC(C)(C)CO)c4c3)c3cn(C45CC(C4)C5)nn3)cccc2c1=O` [Example 768, (S)-6-(((1-(bicyclo[1.1.1]pentan-1-yl)-1H-1,2,3-triazol-4-yl)(2-methyl-1-oxo-1,2-dihydroisoquinolin-5-yl)methyl)amino)-8-chloro-4-((3-hydroxy-2,2-dimethylpropyl)amino)quinoline-3-carbonitrile], the EC50 in the test with TNFα (setting [1]) is 86 nM. This compound also had an IC50 against Human Cot (setting [2]) of 6 nM.

With `CC(C)(C)CNc1c(C#N)cnc2c(C#N)cc(N[C@H](c3cn(C4(C(F)(F)F)CC4)nn3)c3cccc4c(=O)n(CC(F)F)ccc34)cc12` [Example 874, (S)-6-(((2-(2,2-difluoroethyl)-1-oxo-1,2-dihydroisoquinolin-5-yl)(1-(1-(trifluoromethyl)cyclopropyl)-1H-1,2,3-triazol-4-yl)methyl)amino)-4-(neopentylamino)quinoline-3,8-dicarbonitrile], the EC50 in the test with TNFα (setting [3]) came out at 73 nM. Besides, the IC50 against Human Cot (setting [4]) was found to be 3 nM.

As for `Cc1nc(F)ccc1[C@H](Nc1cc(C#N)c2ncc(C#N)c(NCC(C)(C)C)c2c1)c1nnn(C2CC2)c1C1CC1` [Example 857, (S)-6-(((l,5-dicyclopropyl-1H-1,2,3-triazol-4-yl)(6-fluoro-2-methylpyridin-3-yl)methyl)amino)-4-(neopentylamino)quinoline-3,8-dicarbonitrile], in the test on TNFα (read-out: EC50 TNF, LPS-stimulated human monocytes, TNFα TR-FRET), the EC50 was 180 nM. Also, the IC50 at Human Cot (read-out: IC50 HTRF, Cot HTRF (TR-FRET KinEASE) biochemical assay, 400 μM ATP) came out at 4 nM.
